Structures can show the parent of a compound that is named as a salt.
Columns and labels:
[1] = octanol/water; value not marked predicted; source not stated; cited from earlier work
[2] = Solubility in water when preparing mass spectrometry standards; assay type: physicochemical; settings: standard and batch prepared in methanol instead
Experimental: Samples for mass spectrometry were weighed and then concentrated to 5 mg/mL. The samples were further diluted to 0.1 mg/mL for analysis in 50/50 water to methanol. Standards were prepared to 20 μg/mL in optima grade methanol or water. The following standards were prepared in water at 20 μg/mL: bethanechol chloride, chloroquine diphosphate, cyclobenzaprine hydrochloride, D-penicillamine, ondansetron hydrochloride, venlafaxine hydrochloride, and donepezil hydrochloride.

[3] = tested on: movement disorder due to antipsychotics known as dystonia and parkinsonism; settings: use column of Table 1A; cited from earlier work

C[C@H]1c2cccc(O)c2C(=O)C2=C(O)[C@]3(O)C(=O)C(C(N)=O)=C(O)[C@@H](N(C)C)[C@@H]3[C@@H](O)[C@@H]21 [Doxycycline]
LogP [1]: 0.63

Cc1nc2n(c(=O)c1CCN1CCC(c3noc4cc(F)ccc34)CC1)CCCC2 [Risperidone]
solubility in water [2]: insolubility in water

Cc1cnc(NC(=O)C2=C(O)c3ccccc3S(=O)(=O)N2C)s1 [Meloxicam]
LogP [1]: 0.1

CCCCC1=NC2(CCCC2)C(=O)N1Cc1ccc(-c2ccccc2-c2nnn[nH]2)cc1 [Irbesartan]
LogP [1]: 4.5

CC(=O)S[C@@H]1CC2=CC(=O)CC[C@]2(C)[C@H]2CC[C@@]3(C)[C@@H](CC[C@@]34CCC(=O)O4)[C@H]12 [Spironolactone]
LogP [1]: 2.78

NCCCC[C@H](N[C@@H](CCc1ccccc1)C(=O)O)C(=O)N1CCC[C@H]1C(=O)O [Lisinopril dihydrate]
LogP [1]: −1.01

Nc1nnc(-c2cccc(Cl)c2Cl)c(N)n1 [Lamotrigine]
LogP [1]: 1.93

CNC(=C[N+](=O)[O-])NCCSCc1ccc(CN(C)C)o1 [Ranitidine]
LogP [1]: 0.2

Cc1ncc(CO)c(CO)c1O [Pyridoxine]
LogP [1]: −0.77

Nc1ccc(O)c(C(=O)O)c1 [Mesalamine]
LogP [1]: −0.29

CC(C)(S)[C@@H](N)C(=O)O [D-penicillamine]
LogP [1]: −1.78

CC(C[N+](C)(C)C)OC(N)=O (centres unmarked) [Bethanechol chloride]
LogP [1]: −4.1

NC(=O)c1cnccn1 [Pyrazinamide]
LogP [1]: −0.60

NCC(CC(=O)O)c1ccc(Cl)cc1 (centres unmarked) [Baclofen]
LogP [1]: 1.3

CN(C)CCC=C1c2ccccc2C=Cc2ccccc21 [Cyclobenzaprine hydrochloride]
LogP [1]: 5.2

COc1ccccc1OCCNCC(O)COc1cccc2[nH]c3ccccc3c12 (centres unmarked) [Carvedilol]
LogP [1]: 3.8

C#C[C@]1(O)CC[C@H]2[C@@H]3CCc4cc(O)ccc4[C@H]3CC[C@@]21C [Ethinylestradiol]
LogP [1]: 3.67

CC[C@H](C)C(=O)O[C@H]1C[C@@H](C)C=C2C=C[C@H](C)[C@H](CC[C@@H]3C[C@@H](O)CC(=O)O3)[C@H]21 [Lovaststin]
LogP [1]: 4.08

COc1ccccc1OCC(O)CO (centres unmarked) [Guaifenesin]
LogP [1]: 1.39

N[C@@H](Cc1cc(I)c(Oc2cc(I)c(O)c(I)c2)c(I)c1)C(=O)O [Levothyroxine]
LogP [1]: 4.0

CC1=NS(=O)(=O)c2cc(Cl)ccc2N1 [Diazoxide]
LogP [1]: 1.20

CN1[C@@H]2CC[C@H]1C[C@@H](OC(c1ccccc1)c1ccccc1)C2 [Benztropine]
duration of benefits [3]: ≤ 10 h | time until benefits are seen [3]: ≤ 2 h
